Data reported in ChEMBL document CHEMBL1124186, “Synthesis and evaluation of tylosin-related macrolides modified at the aldehyde function: a new series of orally effective antibiotics” (1988).
Converted amounts (≈) assume the structure as drawn.

Columns and labels:
[1] = test system: Staphylococcus aureus; assay: In vitro antimicrobial activity against Staphylococcus aureus X1; type: functional
[2] = test system: Streptococcus pneumoniae; assay: In vitro antimicrobial activity against Streptococcus pneumoniae; type: functional
[3] = test system: Streptococcus pyogenes; assay: In vitro antimicrobial activity against Streptococcus pyogenes C203; type: functional
[4] = test system: Haemophilus influenzae; assay: In vitro antimicrobial activity against Haemophilus influenzae.; type: functional
[5] = test system: Staphylococcus epidermidis; assay: In vitro antimicrobial activity against Staphylococcus epidermidis EPI1; type: functional
[6] = test system: Enterococcus faecium; assay: In vitro antimicrobial activity against Streptococcus faecium X66; type: functional, streptococcus fae-cium

SMILES	MIC [1] [µg/mL]	MIC [2] [µg/mL]	MIC [3] [µg/mL]	MIC [4] [µg/mL]	MIC [5] [µg/mL]	MIC [6] [µg/mL]
CC[C@H]1OC(=O)C[C@@H](O)[C@H](C)[C@@H](O[C@@H]2O[C@H](C)[C@@H](O[C@H]3C[C@@](C)(O)[C@@H](O)[C@H](C)O3)[C@H](N(C)C)[C@H]2O)[C@@H](CCI)C[C@@H](C)C(=O)/C=C/C(C)=C/[C@@H]1CO[C@@H]1O[C@H](C)[C@@H](O)[C@@H](O)[C@H]1OC	2 (≈ 1.97 µM)	16 (≈ 15.8 µM)	4 (≈ 3.94 µM)	128 (≈ 126 µM)	2 (≈ 1.97 µM)	128 (≈ 126 µM)
CCOC(=O)NN(CC[C@H]1C[C@@H](C)C(=O)/C=C/C(C)=C/[C@H](CO[C@@H]2O[C@H](C)[C@@H](O)[C@@H](OC)[C@H]2OC)[C@@H](CC)OC(=O)C[C@@H](O)[C@H](C)[C@H]1O[C@@H]1O[C@H](C)[C@@H](O[C@H]2C[C@@](C)(O)[C@@H](O)[C@H](C)O2)[C@H](N(C)C)[C@H]1O)C(=O)OCC	2 (≈ 1.86 µM)	8 (≈ 7.43 µM)	8 (≈ 7.43 µM)	> 128	4 (≈ 3.72 µM)	> 128
CC[C@H]1OC(=O)C[C@@H](O)[C@H](C)[C@@H](O[C@@H]2O[C@H](C)[C@@H](O[C@H]3C[C@@](C)(O)[C@@H](O)[C@H](C)O3)[C@H](N(C)C)[C@H]2O)[C@@H](CCOc2cccc(N(C)C)c2)C[C@@H](C)C(=O)/C=C/C(C)=C/[C@@H]1CO[C@@H]1O[C@H](C)[C@@H](O)[C@@H](OC)[C@H]1OC	1 (≈ 0.964 µM)	8 (≈ 7.71 µM)	1 (≈ 0.964 µM)	128 (≈ 123 µM)	1 (≈ 0.964 µM)	64 (≈ 61.7 µM)
CC[C@H]1OC(=O)C[C@@H](O)[C@H](C)[C@@H](O[C@@H]2O[C@H](C)[C@@H](O)[C@H](N(C)C)[C@H]2O)[C@@H](CCOc2ccc(OC)cc2)C[C@@H](C)C(=O)/C=C/C(C)=C/[C@@H]1CO[C@@H]1O[C@H](C)[C@@H](O)[C@@H](OC)[C@H]1OC	0.25 (≈ 0.284 µM)	1 (≈ 1.14 µM)	1 (≈ 1.14 µM)		0.25 (≈ 0.284 µM)	4 (≈ 4.55 µM)
CC[C@H]1C[C@@H](C)C(=O)/C=C/C(C)=C/[C@H](C)[C@@H](CC)OC(=O)C[C@@H](O)[C@H](C)[C@H]1O[C@@H]1O[C@H](C)[C@@H](O)[C@H](N(C)C)[C@H]1O	8 (≈ 14.1 µM)	16 (≈ 28.2 µM)	8 (≈ 14.1 µM)	64 (≈ 113 µM)	16 (≈ 28.2 µM)	64 (≈ 113 µM)
CC[C@H]1C[C@@H](C)C(=O)/C=C/C(C)=C/[C@H](C)[C@@H](CC)OC(=O)C[C@@H](O)[C@H](C)[C@H]1O[C@@H]1O[C@H](C)[C@@H](O[C@H]2C[C@@](C)(O)[C@@H](O)[C@H](C)O2)[C@H](N(C)C)[C@H]1O	128 (≈ 180 µM)	64 (≈ 89.9 µM)	128 (≈ 180 µM)	> 128	64 (≈ 89.9 µM)	> 128
CC[C@H]1OC(=O)C[C@@H](O)[C@H](C)[C@@H](O[C@@H]2O[C@H](C)[C@@H](O)[C@H](N(C)C)[C@H]2O)[C@@H](CCI)C[C@@H](C)C(=O)/C=C/C(C)=C/[C@@H]1CO[C@@H]1O[C@H](C)[C@@H](O)[C@@H](O)[C@H]1OC	0.5 (≈ 0.575 µM)	2 (≈ 2.3 µM)	0.5 (≈ 0.575 µM)	32 (≈ 36.8 µM)	0.5 (≈ 0.575 µM)	16 (≈ 18.4 µM)
CC[C@H]1OC(=O)C[C@@H](O)[C@H](C)[C@@H](O[C@@H]2O[C@H](C)[C@@H](O[C@H]3C[C@@](C)(O)[C@@H](O)[C@H](C)O3)[C@H](N(C)C)[C@H]2O)[C@@H](CCOc2cc(Cl)cc(Cl)c2)C[C@@H](C)C(=O)/C=C/C(C)=C/[C@@H]1CO[C@@H]1O[C@H](C)[C@@H](O)[C@@H](OC)[C@H]1OC	1 (≈ 0.941 µM)	16 (≈ 15.1 µM)	1 (≈ 0.941 µM)	> 128	2 (≈ 1.88 µM)	> 128
CC[C@H]1OC(=O)C[C@@H](O)[C@H](C)[C@@H](O[C@@H]2O[C@H](C)[C@@H](O[C@H]3C[C@@](C)(O)[C@@H](O)[C@H](C)O3)[C@H](N(C)C)[C@H]2O)[C@@H](CCOc2ccc(OC)cc2)C[C@@H](C)C(=O)/C=C/C(C)=C/[C@@H]1CO[C@@H]1O[C@H](C)[C@@H](O)[C@@H](OC)[C@H]1OC	0.5 (≈ 0.488 µM)	8 (≈ 7.81 µM)	1 (≈ 0.976 µM)	128 (≈ 125 µM)	2 (≈ 1.95 µM)	128 (≈ 125 µM)
CC[C@H]1OC(=O)C[C@@H](O)[C@H](C)[C@@H](O[C@@H]2O[C@H](C)[C@@H](O[C@H]3C[C@@](C)(O)[C@@H](O)[C@H](C)O3)[C@H](N(C)C)[C@H]2O)[C@@H](CCNCCc2ccccc2)C[C@@H](C)C(=O)/C=C/C(C)=C/[C@@H]1C	4 (≈ 4.81 µM)	1 (≈ 1.2 µM)	2 (≈ 2.41 µM)	64 (≈ 77 µM)	4 (≈ 4.81 µM)	8 (≈ 9.63 µM)
CC[C@H]1OC(=O)C[C@@H](O)[C@H](C)[C@@H](O[C@@H]2O[C@H](C)[C@@H](O[C@H]3C[C@@](C)(O)[C@@H](O)[C@H](C)O3)[C@H](N(C)C)[C@H]2O)[C@@H](CCOc2ncnc3ccccc23)C[C@@H](C)C(=O)/C=C/C(C)=C/[C@@H]1CO[C@@H]1O[C@H](C)[C@@H](O)[C@@H](OC)[C@H]1OC	0.5 (≈ 0.478 µM)	4 (≈ 3.82 µM)	4 (≈ 3.82 µM)	> 128	1 (≈ 0.956 µM)	32 (≈ 30.6 µM)
CC[C@H]1OC(=O)C[C@@H](O)[C@H](C)[C@@H](O[C@@H]2O[C@H](C)[C@@H](O)[C@H](N(C)C)[C@H]2O)[C@@H](CCOCCc2ccccc2)C[C@@H](C)C(=O)/C=C/C(C)=C/[C@@H]1CO[C@@H]1O[C@H](C)[C@@H](O)[C@@H](OC)[C@H]1OC	0.25 (≈ 0.285 µM)	0.25 (≈ 0.285 µM)	1 (≈ 1.14 µM)		0.25 (≈ 0.285 µM)	8 (≈ 9.11 µM)
CC[C@H]1OC(=O)C[C@@H](O)[C@H](C)[C@@H](O[C@@H]2O[C@H](C)[C@@H](O)[C@H](N(C)C)[C@H]2O)[C@@H](CCOC(C)=O)C[C@@H](C)C(=O)/C=C/C(C)=C/[C@@H]1CO[C@@H]1O[C@H](C)[C@@H](O)[C@@H](OC)[C@H]1OC	0.5 (≈ 0.613 µM)	2 (≈ 2.45 µM)	0.12 (≈ 0.147 µM)	16 (≈ 19.6 µM)	0.25 (≈ 0.306 µM)	8 (≈ 9.8 µM)
CC[C@H]1OC(=O)C[C@@H](O)[C@H](C)[C@@H](O[C@@H]2O[C@H](C)[C@@H](O[C@H]3C[C@@](C)(O)[C@@H](O)[C@H](C)O3)[C@H](N(C)C)[C@H]2O)[C@@H](CCNCCc2ccccc2)C[C@@H](C)C(=O)/C=C/C(C)=C/[C@@H]1CO	16 (≈ 18.9 µM)	4 (≈ 4.72 µM)	8 (≈ 9.44 µM)	64 (≈ 75.6 µM)	16 (≈ 18.9 µM)	32 (≈ 37.8 µM)
CC[C@H]1OC(=O)C[C@@H](O)[C@H](C)[C@@H](O[C@@H]2O[C@H](C)[C@@H](O)[C@H](N(C)C)[C@H]2O)[C@@H](CCO[N+](=O)[O-])C[C@@H](C)C(=O)/C=C/C(C)=C/[C@@H]1CO[C@@H]1O[C@H](C)[C@@H](O)[C@@H](OC)[C@H]1OC	0.25 (≈ 0.305 µM)	2 (≈ 2.44 µM)	0.25 (≈ 0.305 µM)	16 (≈ 19.5 µM)	0.25 (≈ 0.305 µM)	8 (≈ 9.77 µM)
CC[C@H]1OC(=O)C[C@@H](O)[C@H](C)[C@@H](O[C@@H]2O[C@H](C)[C@@H](O[C@H]3C[C@@](C)(O)[C@@H](O)[C@H](C)O3)[C@H](N(C)C)[C@H]2O)[C@@H](CCOC(C(F)(F)F)C(F)(F)F)C[C@@H](C)C(=O)/C=C/C(C)=C/[C@@H]1CO[C@@H]1O[C@H](C)[C@@H](O)[C@@H](OC)[C@H]1OC	4 (≈ 3.74 µM)	32 (≈ 30 µM)	8 (≈ 7.49 µM)	> 128	4 (≈ 3.74 µM)	> 128
CC[C@H]1OC(=O)C[C@@H](O)[C@H](C)[C@@H](O[C@@H]2O[C@H](C)[C@@H](O[C@H]3C[C@@](C)(O)[C@@H](O)[C@H](C)O3)[C@H](N(C)C)[C@H]2O)[C@@H](CCOc2ccc(C(=O)c3ccccc3)cc2)C[C@@H](C)C(=O)/C=C/C(C)=C/[C@@H]1CO[C@@H]1O[C@H](C)[C@@H](O)[C@@H](OC)[C@H]1OC	1 (≈ 0.91 µM)	1 (≈ 0.91 µM)	2 (≈ 1.82 µM)	> 128	2 (≈ 1.82 µM)	4 (≈ 3.64 µM)
CC[C@H]1OC(=O)C[C@@H](O)[C@H](C)[C@@H](O[C@@H]2O[C@H](C)[C@@H](O[C@H]3C[C@@](C)(O)[C@@H](O)[C@H](C)O3)[C@H](N(C)C)[C@H]2O)[C@@H](CCOc2ccc([N+](=O)[O-])cc2)C[C@@H](C)C(=O)/C=C/C(C)=C/[C@@H]1CO[C@@H]1O[C@H](C)[C@@H](O)[C@@H](OC)[C@H]1OC	1 (≈ 0.962 µM)	16 (≈ 15.4 µM)	2 (≈ 1.92 µM)	> 128	1 (≈ 0.962 µM)	128 (≈ 123 µM)
CC[C@H]1OC(=O)C[C@@H](O)[C@H](C)[C@@H](O[C@@H]2O[C@H](C)[C@@H](O[C@H]3C[C@@](C)(O)[C@@H](O)[C@H](C)O3)[C@H](N(C)C)[C@H]2O)[C@@H](CCN2C(=O)c3ccccc3C2=O)C[C@@H](C)C(=O)/C=C/C(C)=C/[C@@H]1C	64 (≈ 74.7 µM)	8 (≈ 9.33 µM)	64 (≈ 74.7 µM)	> 128	64 (≈ 74.7 µM)	128 (≈ 149 µM)
CC[C@H]1OC(=O)C[C@@H](O)[C@H](C)[C@@H](O[C@@H]2O[C@H](C)[C@@H](O)[C@H](N(C)C)[C@H]2O)[C@@H](CCOc2ccc(C=O)cc2)C[C@@H](C)C(=O)/C=C/C(C)=C/[C@@H]1CO[C@@H]1O[C@H](C)[C@@H](O)[C@@H](OC)[C@H]1OC	0.25 (≈ 0.285 µM)	1 (≈ 1.14 µM)	1 (≈ 1.14 µM)	16 (≈ 18.2 µM)	0.25 (≈ 0.285 µM)	4 (≈ 4.56 µM)
CC[C@H]1OC(=O)C[C@@H](O)[C@H](C)[C@@H](O[C@@H]2O[C@H](C)[C@@H](O)[C@H](N(C)C)[C@H]2O)[C@@H](CCN2C(=O)c3ccccc3C2=O)C[C@@H](C)C(=O)/C=C/C(C)=C/[C@@H]1C	8 (≈ 11.2 µM)	64 (≈ 89.8 µM)	64 (≈ 89.8 µM)	128 (≈ 180 µM)	8 (≈ 11.2 µM)	32 (≈ 44.9 µM)
CC[C@H]1OC(=O)C[C@@H](O)[C@H](C)[C@@H](O[C@@H]2O[C@H](C)[C@@H](O)[C@H](N(C)C)[C@H]2O)[C@@H](CCOc2cccc(N(C)C)c2)C[C@@H](C)C(=O)/C=C/C(C)=C/[C@@H]1CO[C@@H]1O[C@H](C)[C@@H](O)[C@@H](OC)[C@H]1OC	0.5 (≈ 0.56 µM)	1 (≈ 1.12 µM)	0.25 (≈ 0.28 µM)		0.5 (≈ 0.56 µM)	4 (≈ 4.48 µM)
CC[C@H]1C[C@@H](C)C(=O)/C=C/C(C)=C/[C@H](CO[C@@H]2O[C@H](C)[C@@H](O)[C@@H](O)[C@H]2OC)[C@@H](CC)OC(=O)C[C@@H](O)[C@H](C)[C@H]1O[C@@H]1O[C@H](C)[C@@H](O)[C@H](N(C)C)[C@H]1O	0.25 (≈ 0.336 µM)	4 (≈ 5.38 µM)	0.5 (≈ 0.672 µM)		1.2 (≈ 1.61 µM)	8 (≈ 10.8 µM)
